Experimental data: US8209131B2, “Therapeutic heparins and their binding to interleukins 4 and 5 and PECAM-1” (Curtin University of Technology, priority 2004, dated 2012)
Read-outs that look alike come from different tables or passages of the source.

Columns and labels:
[1] = BIAcore binding of proteins to heparin immobilised on a biosensor chip; conditions: for binding to immobilized heparin: recombinant proteins, FIG. 2
Description: This technology uses the optical phenomenon of surface plasmon resonance to monitor physical interactions between molecules. Passing the protein solution over a sensor surface to which the ligand is coupled monitors the real-time binding of proteins to an immobilized ligand. Detection is achieved by measuring refractive index changes very close to the sensor surface. When the refractive index is altered, the angle at which plasmon resonance occurs changes and this change directly correlates with the amount of protein interacting with the surface. A BIAcore 2000 is conveniently used. It is very sensitive and its microfluidics ensures that only small amounts of material are required.
The HLGAGs are immobilized on the biosensor chip. Intact HLGAGs are biotinylated via amino groups, or reducing termini modified with ammonia by reductive amination, using sulfo-NHS-biotin. Biotinylated HLGAGs are immobilized on streptavidin-coupled sensor chips. Solutions containing proteins of interest are injected over the sensor chip surface, and the binding is measured in real time (Fernig, In: Proteoglycan protocols, Ed. R.V. Iozzo, Humana Press, Totowa, N.J., USA, 2001). […] In all cases binding is specific, as there is little or no interaction with sensor chips lacking heparin with any of the targeted proteins, and binding is inhibited by exogenous heparin. Initial analyzes indicate that the binding of rhIL-5 to heparin has affinity constants of the order from 50-5×10^−9. Because unsubstituted amines are variably present in heparan sulfates from different tissues, an alternative method of biotin labeling is recommended for the heparan sulfate chip. In this case, heparan sulfate is labeled via oxidized cis-diol residues using biotinyl-LC-hydrazine. […]
Binding experiments with these proteins has indicated to which PECAM-1 domains heparin binds. Two binding assays were used: the assay where PECAM-1 is reacted with a BIAcore biosensor chip to which heparin has been immobilised and the second assay is the binding of PECAM-1 to heparan sulfate on the cell surface.
Site directed mutagenesis was performed on IL-4. Basic residues within the proposed heparin binding site were changed to alanine and the proteins expressed using the baculovirus expression system. The one exception was R88 which was changed to valine. Insect cell expressed proteins were purified on an anti-IL-4 affinity column and checked for purity by SDS-PAGE and silver staining. Mutant IL-4 proteins were examined for their ability to bind heparin immobilised on a biosensor chip and binding assessed using a BIAcore 2000.

TF1.8 cells = assay: TF1.8 bioassay of IL-4 mutants (support of proliferation); format: cell-based, human; conditions: IL-4 wt and mutants, TF1.8 cells
Protocol: TF-1.8 cells have been transfected with the firefly luciferase gene contained in the expression vector, pPGK-puromycin-luciferase (Coombe et al., 1998, Supra). The positive transfectants are cloned to produce a line with good luciferase expression. The proliferation assays are carried out in 96-well microplates suitable for such assays Falcon). The wells are flat bottomed, with white sides and a clear bottom. Cells are washed to remove any cytokine in the growth medium and then resuspended in RPMI/5% w/v FCS. The cells are counted with a Coulter Multisizer (Coulter Electronics, England) and routinely 2.5×10^4 cells are added to microplate wells that contain either no IL-4 (negative control) or various dilutions of IL-4. When the effect of HLGAGs, chondroitin sulfate C, or the heparin fractions of a particular length, or heparin fragments of a particular length and structure is to be measured, the wells also contain various concentrations of these molecules.
The cells proliferate for 48 hours at 37° C. in a humidified atmosphere, after which the luciferase activity is measured by the addition of 50 μl of luciferase substrate buffer (50 mm Tris-HCl, pH 7.8, 15 mM MgSO4, 33.3 mM DTT, 0.1 mM EDTA, 0.5 mM Na-luciferin, 0.5 mM ATP, 0.25 mM lithium Co A and 0.5% v/v Triton X-100). […] Light emissions are detected on a Victor 1420 Multilabel counter (Wallac, Turku, Finland). […]

Substance	binding to immobilized heparin [1]	Kd ([1]; FIG. 24, several IL-4 concentrations, read-out: estimated KD of wild-type IL-4 binding to heparin) [nM]	ka ([1]; IL-4 WT and mutants binding to heparin, in M-1s-1 (unit assumed))	kd ([1]; IL-4 WT and mutants binding to heparin, in s-1 (unit assumed))	Kd ([1]; IL-4 WT and mutants binding to heparin, read-out: KD) [nM]	Conc needed for 50% growth, average (TF1.8 cells) [ng/mL]	binding of PECAM-1 constructs to immobilised heparin [1]
CypA: E. coli expressed Cyclophilin A	readily bind to heparin						
WT: recombinant human wild-type IL-4	readily bind to heparin	5 to 10	5.68E+04	2.88E−03	52.7	0.99	
flag-PECAM-1: extracellular domain of PECAM-1 fused to the flag affinity tag, Cos-7 expressed	readily bind to heparin						can bind to the heparin chip
rhIL-5: baculovirus expressed human IL-5	readily bind to heparin						
